# In ChEMBL document CHEMBL3994622, “Design and synthesis of new RAF kinase-inhibiting antiproliferative quinoline derivatives. Part 2: Diarylurea derivatives” (Eur J Med Chem, 2017):
# Test system: A498
# Assay: Growth inhibition of human A498 cells incubated for 48 hrs by sulforhodamine B assay
# Type: functional
# Conditions: A498, 48 h
SMILES,GI50 [nM],TGI [nM]
COc1cc2cc(Oc3ccc(NC(=O)Nc4cc(C(F)(F)F)cc(C(F)(F)F)c4)cc3)c(C)nc2cc1OC,1600,4290

# Same assay, conditions: A498, 48 h, read-out: LC50 (the source's name)
row,SMILES,CC50 [nM]
1,COc1cc2cc(Oc3ccc(NC(=O)Nc4cc(C(F)(F)F)cc(C(F)(F)F)c4)cc3)c(C)nc2cc1OC,7980

# Test system: NCI/ADR-RES
# Assay: Growth inhibition of human NCI/ADR-RES cells assessed as cell growth at 10 uM incubated for 48 hrs by sulforhodamine B assay relative to control
# Type: functional
# Conditions: read-out: Activity
row,SMILES,growth at 10 µM [%]
1,COc1cc2cc(Oc3ccc(NC(=O)Nc4cc(C(F)(F)F)cc(C(F)(F)F)c4)cc3)c(C)nc2cc1OC,7.03

# Test system: KM12
# Assay: Growth inhibition of human KM12 cells assessed as cell growth at 10 uM incubated for 48 hrs by sulforhodamine B assay relative to control
# Type: functional
# Conditions: KM12, 48 h, read-out: Activity
row,SMILES,growth at 10 µM [%]
1,COc1cc2cc(Oc3ccc(NC(=O)Nc4cc(C(F)(F)F)cc(C(F)(F)F)c4)cc3)c(C)nc2cc1OC,5.61

# Test system: M14
# Assay: Growth inhibition of human M14 cells assessed as cell growth at 10 uM incubated for 48 hrs by sulforhodamine B assay relative to control
# Type: functional
# Conditions: M14, 48 h, read-out: Activity
row,SMILES,growth at 10 µM [%]
1,COc1cc2cc(Oc3ccc(NC(=O)Nc4cc(C(F)(F)F)cc(C(F)(F)F)c4)cc3)c(C)nc2cc1OC,9.04

# Test system: T47D
# Assay: Growth inhibition of human T47D cells incubated for 48 hrs by sulforhodamine B assay
# Type: functional
# Conditions: not given
SMILES,GI50 [nM],TGI [nM]
COc1cc2cc(Oc3ccc(NC(=O)Nc4cc(C(F)(F)F)cc(C(F)(F)F)c4)cc3)c(C)nc2cc1OC,1480,5670

# Same assay, conditions: read-out: LC50 (the source's name)
row,SMILES,CC50 [nM]
1,COc1cc2cc(Oc3ccc(NC(=O)Nc4cc(C(F)(F)F)cc(C(F)(F)F)c4)cc3)c(C)nc2cc1OC,29100

# Test system: SW-620
# Assay: Growth inhibition of human SW620 cells assessed as cell growth at 10 uM incubated for 48 hrs by sulforhodamine B assay relative to control
# Type: functional
# Conditions: SW-620, 48 h, read-out: Activity
row,SMILES,growth at 10 µM [%]
1,COc1cc2cc(Oc3ccc(NC(=O)Nc4cc(C(F)(F)F)cc(C(F)(F)F)c4)cc3)c(C)nc2cc1OC,15.9

# Test system: OVCAR-3
# Assay: Growth inhibition of human OVCAR3 cells incubated for 48 hrs by sulforhodamine B assay
# Type: functional
# Conditions: OVCAR-3, 48 h
SMILES,GI50 [nM],TGI [nM]
COc1cc2cc(Oc3ccc(NC(=O)Nc4cc(C(F)(F)F)cc(C(F)(F)F)c4)cc3)c(C)nc2cc1OC,488 to 490,1700

# Same assay, conditions: OVCAR-3, 48 h, read-out: LC50 (the source's name)
row,SMILES,CC50 [nM]
1,COc1cc2cc(Oc3ccc(NC(=O)Nc4cc(C(F)(F)F)cc(C(F)(F)F)c4)cc3)c(C)nc2cc1OC,4520

# Test system: U-251
# Assay: Growth inhibition of human U251 cells incubated for 48 hrs by sulforhodamine B assay
# Type: functional
# Conditions: U-251, 48 h
SMILES,GI50 [nM],TGI [nM]
COc1cc2cc(Oc3ccc(NC(=O)Nc4cc(C(F)(F)F)cc(C(F)(F)F)c4)cc3)c(C)nc2cc1OC,1080,2470

# Same assay, conditions: U-251, 48 h, read-out: LC50 (the source's name)
row,SMILES,CC50 [nM]
1,COc1cc2cc(Oc3ccc(NC(=O)Nc4cc(C(F)(F)F)cc(C(F)(F)F)c4)cc3)c(C)nc2cc1OC,5610

# Test system: SK-OV-3
# Assay: Growth inhibition of human SKOV3 cells assessed as cell growth at 10 uM incubated for 48 hrs by sulforhodamine B assay relative to control
# Type: functional
# Conditions: SK-OV-3, 48 h, read-out: Activity
row,SMILES,growth at 10 µM [%]
1,COc1cc2cc(Oc3ccc(NC(=O)Nc4cc(C(F)(F)F)cc(C(F)(F)F)c4)cc3)c(C)nc2cc1OC,-1.05

# Test system: SN12C
# Assay: Growth inhibition of human SN12C cells assessed as cell growth at 10 uM incubated for 48 hrs by sulforhodamine B assay relative to control
# Type: functional
# Conditions: read-out: Activity
row,SMILES,growth at 10 µM [%]
1,COc1cc2cc(Oc3ccc(NC(=O)Nc4cc(C(F)(F)F)cc(C(F)(F)F)c4)cc3)c(C)nc2cc1OC,7.69

# Test system: NCI-H460
# Assay: Growth inhibition of human NCI-H460 cells incubated for 48 hrs by sulforhodamine B assay
# Type: functional
# Conditions: NCI-H460, 48 h
SMILES,GI50 [nM],TGI [nM]
COc1cc2cc(Oc3ccc(NC(=O)Nc4cc(C(F)(F)F)cc(C(F)(F)F)c4)cc3)c(C)nc2cc1OC,960,2720

# Same assay, conditions: NCI-H460, 48 h, read-out: LC50 (the source's name)
row,SMILES,CC50 [nM]
1,COc1cc2cc(Oc3ccc(NC(=O)Nc4cc(C(F)(F)F)cc(C(F)(F)F)c4)cc3)c(C)nc2cc1OC,7530

# Test system: PC-3
# Assay: Growth inhibition of human PC3 cells incubated for 48 hrs by sulforhodamine B assay
# Type: functional
# Conditions: PC-3, 48 h
SMILES,GI50 [nM],TGI [nM]
COc1cc2cc(Oc3ccc(NC(=O)Nc4cc(C(F)(F)F)cc(C(F)(F)F)c4)cc3)c(C)nc2cc1OC,420,2480

# Same assay, conditions: PC-3, 48 h, read-out: LC50 (the source's name)
row,SMILES,CC50 [nM]
1,COc1cc2cc(Oc3ccc(NC(=O)Nc4cc(C(F)(F)F)cc(C(F)(F)F)c4)cc3)c(C)nc2cc1OC,32400
